Like-named read-outs stand apart in the source and are kept apart here. Positions of bridges follow the written chain, without caps; N, C: chain ends. No end group written: not given here.
Legend:
[1] = system: Pseudotyped SARS-CoV-2 BA.1; details: Pseudotyped BA.1, 48 h
[2] = system: Pseudotyped SARS-CoV-2 BA.2; details: Pseudotyped BA.2, 48 h
[3] = system: Pseudotyped SARS-CoV-2 BA.2.75; details: Pseudotyped BA.2.75, 48 h
[4] = system: Pseudotyped SARS-CoV-2 BQ.1.1; details: Pseudotyped BQ.1.1, 48 h
[5] = system: live SARS-CoV-2 Delta variant (B.1.617.2); details: live Delta variant (B.1.617.2, 2 h)
[6] = system: Pseudotyped SARS-CoV-2 XBB; details: 48 h
[7] = system: Pseudotyped SARS-CoV-2 BA.2.12.1; details: Pseudotyped BA.2.12.1, 48 h
[8] = system: Pseudotyped SARS-CoV-2 BA.4.6; details: Pseudotyped BA.4.6, 48 h
[9] = system: Pseudotyped SARS-CoV-2 BA.5; details: Pseudotyped BA.5, 48 h
[10] = system: Pseudotyped SARS-CoV-2 BF.7; details: Pseudotyped BF.7, 48 h
[11] = system: Pseudotyped SARS-CoV-2 C.37; details: Pseudotyped C.37, 48 h
[12] = system: Pseudotyped SARS-CoV-2 C.37; details: Pseudotyped C.37, 48 h; remark: listed apart in the source
[13] = system: Pseudotyped SARS-CoV-2 P.1 (Gamma); details: Pseudotyped P.1 (Gamma, 48 h)
[14] = system: Pseudotyped SARS-CoV-2 B.1.351 (Beta); details: Pseudotyped B.1.351 (Beta, 48 h)
[15] = system: Pseudotyped SARS-CoV-2 N501Y; details: 48 h
[16] = system: Pseudotyped SARS-CoV-2 P.1 (Gamma); details: Pseudotyped P.1 (Gamma, 48 h); remark: listed apart in the source
[17] = system: Pseudotyped SARS-CoV-2 B.1.617.2 (Delta); details: Pseudotyped B.1.617.2 (Delta, 48 h)
[18] = system: Pseudotyped SARS-CoV-2 B.1.617.2 (Delta); details: Pseudotyped B.1.617.2 (Delta, 48 h); remark: listed apart in the source
[19] = system: Pseudotyped SARS-CoV-2 B.1.1.7 (Alpha); details: Pseudotyped B.1.1.7 (Alpha, 48 h)
[20] = system: Pseudotyped SARS-CoV-2 B.1.351 (Beta); details: Pseudotyped B.1.351 (Beta, 48 h); remark: listed apart in the source
[21] = system: Pseudotyped SARS-CoV-2 B.1.1.7 (Alpha); details: Pseudotyped B.1.1.7 (Alpha, 48 h); remark: listed apart in the source
[22] = system: Pseudotyped SARS-CoV-2 N501Y; details: 48 h; remark: listed apart in the source

Compound CC[C@H](C)[C@H](NC(=O)[C@H](C)NC(=O)[C@H](CCC(=O)O)NC(=O)[C@H](CCC(=O)O)NC(=O)[C@H](CC(C)C)NC(=O)[C@H](CCCCN)NC(=O)[C@H](CCCCN)NC(=O)[C@H](CCSC)NC(=O)[C@H](CCC(=O)O)NC(=O)[C@H](Cc1ccc(O)cc1)NC(=O)[C@H](CCC(=O)O)NC(=O)[C@H](CC(C)C)NC(=O)[C@H](CC(=O)O)NC(=O)[C@H](CC(C)C)NC(=O)[C@H](Cc1ccccc1)NC(=O)[C@@H](NC(=O)[C@@H](NC(=O)[C@H](CC(N)=O)NC(=O)[C@@H](NC(=O)[C@H](CCC(N)=O)NC(=O)[C@H](CC(=O)O)NC(=O)[C@H](CC(C)C)NC(=O)[C@@H](N)CO)[C@@H](C)CC)C(C)C)[C@@H](C)O)C(=O)N[C@@H](CCCCN)C(=O)N[C@@H](CCCCN)C(=O)N[C@@H](CC(C)C)C(=O)N[C@@H](CCC(=O)O)C(=O)N[C@@H](CCC(=O)O)C(=O)N[C@@H](CO)C(=O)N[C@@H](Cc1ccc(O)cc1)C(=O)N[C@H](C(=O)N[C@@H](CC(=O)O)C(=O)N[C@@H](CC(C)C)C(=O)N[C@@H](CCCCN)C(=O)N[C@@H](CCC(=O)O)C(=O)N[C@@H](CC(C)C)C(=O)O)[C@@H](C)CC [EK1] has an IC50 [1] of 334 nM, an IC50 [2] of 544 nM and an IC50 [3] of 248 nM. For the same compound, the IC50 [4] was 378 nM, the IC50 [5] was 296 nM and the IC50 [6] was 366 nM. The IC50 [7] was 592 nM, the IC50 [8] was 201 nM and the IC50 [9] was 690 nM. For the same compound, the IC50 [10] was 260 nM.
With CC(C)C[C@@H]1NC(=O)[C@H](Cc2c[nH]cn2)NC(=O)[C@H](Cc2c[nH]c3ccccc23)NC(=O)[C@H](C)NC(=O)[C@@H](NC(=O)[C@@H](N)CC(=O)O)CSSC[C@@H](C(=O)N[C@H](C(=O)O)[C@@H](C)O)NC(=O)[C@H](Cc2c[nH]c3ccccc23)NC(=O)[C@H](C(C)C)NC(=O)[C@H](CC(C)C)NC(=O)[C@H](CCC(=O)O)NC(=O)CNC1=O [IBP] the IC50 [11] was > 50000 nM, the IC50 [1] was > 50000 nM and the IC50 [2] was > 50000 nM. The IC50 [12] was > 50000 nM, the IC50 [13] was > 50000 nM and the IC50 [14] was > 50000 nM. The IC50 [3] was > 50000 nM, the IC50 [4] was > 50000 nM and the IC50 [15] was > 50000 nM. The IC50 [16] was > 50000 nM, the IC50 [17] was > 50000 nM and the IC50 [5] was > 50000 nM. The IC50 [18] was > 50000 nM, the IC50 [6] was > 50000 nM and the IC50 [7] was > 50000 nM. The IC50 [8] was > 50000 nM, the IC50 [9] was > 50000 nM and the IC50 [19] was > 50000 nM. For the same compound, the IC50 [20] was > 50000 nM, the IC50 [21] was > 50000 nM and the IC50 [22] was > 50000 nM. The IC50 [10] was > 50000 nM.
“DCAWHLGELVWCTSLDQINVTFLDLEYEMKKLEEAIKKLEESYIDLKEL (disulfide 2-12) [IBP-EK1]” showed an IC50 [1] of 301 nM, an IC50 [2] of 399 nM and an IC50 [3] of 221 nM. For the same compound, the IC50 [4] was 342 nM, the IC50 [5] was 204 nM and the IC50 [6] was 330 nM. The IC50 [7] was 527 nM, the IC50 [8] was 195 nM and the IC50 [9] was 564 nM. For the same compound, the IC50 [10] was 257 nM.

— article PMC10526447 (Biomolecules, 2023)
